Laboratory results: patent US12384788B2, “1,4-dihydrobenzo[d]pyrazolo[3,4-f][1,3]diazepine derivatives and related compounds as LRRK2, NUAK1 and/or TYK2 kinase modulators for the treatment of e.g. autoimmune disease” (Origenis GMBH, priority 2019, dated 2025)
pIC50: −log10 of the molar value.

Target: T1, wt human TYK2, catalytic site (Homo sapiens, UniProt P29597)
T1 construct: wt human TYK2, catalytic site; purchased SignalChem
T1 sequence (P29597 897-1176 limits assumed): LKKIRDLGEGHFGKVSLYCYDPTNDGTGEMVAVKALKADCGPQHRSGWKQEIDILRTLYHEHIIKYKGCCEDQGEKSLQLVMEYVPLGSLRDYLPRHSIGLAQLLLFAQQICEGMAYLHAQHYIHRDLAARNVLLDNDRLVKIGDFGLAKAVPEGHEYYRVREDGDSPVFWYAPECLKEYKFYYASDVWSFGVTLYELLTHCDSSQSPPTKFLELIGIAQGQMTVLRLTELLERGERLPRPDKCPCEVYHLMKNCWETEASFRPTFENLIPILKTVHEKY
Assay: HTRF KinEASE assay, TYK2
Format: biochemical
Details: 1 μM ATP; read-out: IC50, inhibitory activity toward TYK2
Experimental: Basic protocol for HTRF KinEASE assay (Cisbio/FRA) inhibitor studies involved two steps:
Enzymatic step: Addition of 4 μl of test compound in corresponding DMSO dilutions, 4 μl of kinase/substrate mixture, 2 μl of ATP into 384 well small volume plates. Incubation for at least 30 minutes at room temperature.
Detection step: Addition of 5 μl antibody and 5 μl streptavidin-XL665, read plate after 60 minutes. Data analysis of emission ratios according to KinEASE assay protocol.
Kinase and assay components were adjusted to final concentrations according to the kit protocol. For TYK2: 2 nM wt human TYK2, catalytic site (SignalChem/CAN), 1 μM HTRF KinEASE-TK Substrate-biotin, 1 μM ATP in 1× Kinase Buffer

- pIC50: 7.00 to 8.00
SMILES: Fc1cccc(Cl)c1C1=Nc2cn[nH]c2-c2[nH]ncc2N1 [Compound 89, 5-(2-chloro-6-fluorophenyl)-4,9-dihydro-1H-dipyrazolo[4,3-d:3′,4′-f][1,3]diazepine]
